ChEMBL document CHEMBL1201862, “PubChem BioAssay data set” (2004)
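Protocol summary: plate cells (96-well), add compound at 5 concentrations, incubate 48 h, interpolate endpoints linearly. GI50 = concentration required for 50% inhibition of growth.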 The source made the active and inactive calls. No stated cut-off is given here; in the data, active = GI50 up to about 1.1 µM and inactive = higher.

Legend:
Assay in all cases: NCI-60 cell line screen, 48 h
[1] = tested on: OVCAR-5
[2] = tested on: RPMI-8226
[3] = tested on: K562
[4] = tested on: OVCAR-8
[5] = tested on: NCI-H23
[6] = tested on: IGROV-1
[7] = tested on: SF-268
[8] = tested on: EKVX
[9] = tested on: CCRF-CEM
[10] = tested on: MDA-N
[11] = tested on: 786-0
[12] = tested on: SK-MEL-5
[13] = tested on: SF-295
[14] = tested on: HOP-62
[15] = tested on: UO-31
[16] = tested on: SN12C
[17] = tested on: RXF 393
[18] = tested on: ACHN
[19] = tested on: UACC-257
[20] = tested on: TK-10

Row | SMILES | GI50 [1] | GI50 [2] | GI50 [3] | GI50 [4] | GI50 [5] | GI50 [6] | GI50 [7] | GI50 [8] | GI50 [9] | GI50 [10] | GI50 [11] | GI50 [12] | GI50 [13] | GI50 [14] | GI50 [15] | GI50 [16] | GI50 [17] | GI50 [18] | GI50 [19] | GI50 [20]
1 | Nc1ccc(I)cn1 | > 100 µM (inactive) | > 100 µM (inactive) | > 100 µM (inactive) | > 100 µM (inactive) | > 100 µM (inactive) | > 100 µM (inactive) | > 100 µM (inactive) | > 100 µM (inactive) | > 100 µM (inactive) | > 100 µM (inactive) | > 100 µM (inactive) | > 100 µM (inactive) | > 100 µM (inactive) | > 100 µM (inactive) | > 100 µM (inactive) | > 100 µM (inactive) | > 100 µM (inactive) | > 100 µM (inactive) |  | 
2 | O=S(=O)(O)c1cc(/N=N/c2cccc3ccccc23)c(O)c2ncccc12 | 72.8 µM (inactive) | 41.2 µM (inactive) | 32.1 µM (inactive) | > 100 µM (inactive) | 38.9 µM (inactive) | 29.3 µM (inactive) |  | 30.5 µM (inactive) | 24.7 µM (inactive) | 58.3 µM (inactive) | 38.7 µM (inactive) | 31.1 µM (inactive) | > 100 µM (inactive) | > 100 µM (inactive) |  | 60 µM (inactive) | 62.8 µM (inactive) | 44 µM (inactive) | 64.4 µM (inactive) | > 100 µM (inactive)
3 | CC(=O)O[C@H]1C(=O)[C@@]2(C)[C@H]([C@H](OC(=O)c3ccccc3)[C@]3(O)C[C@H](OC(=O)[C@H](O)[C@@H](NC(=O)c4ccc(N)cc4)c4ccccc4)C(C)=C1C3(C)C)[C@]1(OC(C)=O)CO[C@@H]1C[C@@H]2O | 0.00687 µM (active) | < 0.005 µM (active) | < 0.005 µM (active) | 0.0105 µM (active) |  | 0.014 µM (active) | 0.0107 µM (active) | 0.959 µM (active) | < 0.005 µM (active) | < 0.005 µM (active) | 0.0369 µM (active) | < 0.005 µM (active) | 0.135 µM (active) | 0.0253 µM (active) | 8.32 µM (inactive) |  | 0.0887 µM (active) | 0.711 µM (active) |  | 0.173 µM (active)
4 | COc1nc2c(c(=O)n1C)N=C(c1ccc(Cl)cc1)CC(c1ccccc1)N2 (centres undefined) | 25.6 µM (inactive) | 24 µM (inactive) | 6.78 µM (inactive) | 26.8 µM (inactive) | 25.2 µM (inactive) | 17.2 µM (inactive) |  | 21.5 µM (inactive) | 27.7 µM (inactive) | 18.8 µM (inactive) | 33.8 µM (inactive) | 19.5 µM (inactive) | 18.8 µM (inactive) | 32.1 µM (inactive) | 33.5 µM (inactive) | 21.7 µM (inactive) | 22.5 µM (inactive) | 20.9 µM (inactive) | 26.5 µM (inactive) | 
5 | CCOC(=O)c1cc(Br)c(-c2cc(C)co2)[nH]1 | > 100 µM (inactive) | > 100 µM (inactive) | 69.8 µM (inactive) | > 100 µM (inactive) | > 100 µM (inactive) | 66.1 µM (inactive) | > 100 µM (inactive) | 67 µM (inactive) | > 100 µM (inactive) | 36.4 µM (inactive) | > 100 µM (inactive) | 81.3 µM (inactive) | > 100 µM (inactive) | > 100 µM (inactive) | 66.7 µM (inactive) | > 100 µM (inactive) | > 100 µM (inactive) |  | > 100 µM (inactive) | 
6 | C=C(C)[C@@H]1CCc2c(c(C)cc(O)c(=O)c2O)C1 | > 73.1 µM (inactive) | 3.57 µM (inactive) | 0.881 µM (active) | 0.706 µM (active) | 2.58 µM (inactive) | 0.179 µM (active) | 2.88 µM (inactive) | 2.49 µM (inactive) | 0.412 µM (active) | 3.08 µM (inactive) | 1.41 µM (inactive) | 0.564 µM (active) | 2 µM (inactive) |  | 0.92 µM (active) | 0.363 µM (active) | 2.6 µM (inactive) | 1.18 µM (inactive) | 6.81 µM (inactive) | 13.1 µM (inactive)
7 | COc1ccc(N2C(=O)c3cc([N+](=O)[O-])cnc3S2(=O)=O)cc1 | > 100 µM (inactive) | > 100 µM (inactive) | > 100 µM (inactive) | > 100 µM (inactive) | > 100 µM (inactive) | > 100 µM (inactive) | > 100 µM (inactive) | > 100 µM (inactive) | > 100 µM (inactive) | > 100 µM (inactive) | > 100 µM (inactive) |  | > 100 µM (inactive) | > 100 µM (inactive) | > 100 µM (inactive) | > 100 µM (inactive) | > 100 µM (inactive) | > 100 µM (inactive) |  | > 100 µM (inactive)
8 | COC(=O)C1CN=CN1CCc1ccccc1 (centres undefined) | > 100 µM (inactive) | > 100 µM (inactive) | > 100 µM (inactive) | > 100 µM (inactive) | > 100 µM (inactive) | > 100 µM (inactive) |  | > 100 µM (inactive) | > 100 µM (inactive) | > 100 µM (inactive) | > 100 µM (inactive) | > 100 µM (inactive) | > 100 µM (inactive) |  | > 100 µM (inactive) |  | > 100 µM (inactive) | > 100 µM (inactive) | > 100 µM (inactive) | > 100 µM (inactive)
9 | N#Cc1c(N)c2c(c(-c3ccccc3)c1-c1ccccc1)C(=O)N(N)C2=O | > 100 µM (inactive) | 32.7 µM (inactive) | > 100 µM (inactive) | > 100 µM (inactive) | > 100 µM (inactive) | 60 µM (inactive) | > 100 µM (inactive) | > 100 µM (inactive) | 42.7 µM (inactive) | > 100 µM (inactive) | 98.2 µM (inactive) | 87.9 µM (inactive) | 89.3 µM (inactive) |  | 40.3 µM (inactive) | > 100 µM (inactive) | 58.7 µM (inactive) | > 100 µM (inactive) | > 100 µM (inactive) | > 100 µM (inactive)
10 | O=C(Cc1ccccc1F)NC1=C(Cl)C(=O)c2ccccc2C1=O | 4.08 µM (inactive) | 0.436 µM (active) | 0.611 µM (active) | 2.16 µM (inactive) | 0.778 µM (active) | 1.46 µM (inactive) |  | 3.02 µM (inactive) | 0.428 µM (active) | 2.78 µM (inactive) | 3.09 µM (inactive) | 1.06 µM (active) | 2.85 µM (inactive) | 5.48 µM (inactive) | 0.723 µM (active) | 3.18 µM (inactive) | 0.249 µM (active) | 0.543 µM (active) |  | 2.4 µM (inactive)
11 | COc1ccc(-c2cc(=O)c3ccc(O)cc3o2)cc1OC | > 100 µM (inactive) | 22.8 µM (inactive) | 30 µM (inactive) | 37.4 µM (inactive) | 52.1 µM (inactive) | 32.9 µM (inactive) | > 100 µM (inactive) | 43.7 µM (inactive) | 25.8 µM (inactive) | 47.6 µM (inactive) | 56.9 µM (inactive) | 15.2 µM (inactive) | 31.3 µM (inactive) | 25.5 µM (inactive) |  | 41.3 µM (inactive) | 5.85 µM (inactive) | 48.9 µM (inactive) | > 100 µM (inactive) | 59.3 µM (inactive)
